Data: patent US20230339891A1, “URACIL DERIVATIVES AS MER-AXL INHIBITORS” (BRISTOL-MYERS SQUIBB COMPANY, priority 2018, published 2023)

What was measured:
[1] = molecular target: GST-MERTK 578-872 (Homo sapiens (Human), UniProt Q12866); assay: MERTK kinase homogeneous time resolved fluorescence (HTRF) binding assay; details: 1 nM kinase, fluorescein-labeled kinase tracer at Kd, 60 minutes at room temperature; read-out: Mer HTRF IC50
Experimental: (§1) MERTK, AXL, TYRO3 Kinase Homogeneous Time Resolved Fluorescence (HTRF) Assay
(§2) Assays were performed in black, flat-bottom, 1536-well plates. The reactions were incubated at room temperature for 60 minutes, following which the HTRF signals, ratio of fluorescence intensities at emission wavelengths for fluorescein acceptor (520 nm) and terbium donor (495 nm), the 520/495 ratio, were measured on the Envision Plate reader. Inhibition data were calculated from the 520/495 ratio generated by the no protein control reactions for 100% inhibition and vehicle-only reactions for 0% inhibition, and dose response curves generated to determine the concentration required for inhibiting 50% of the HTRF signal (IC50). Compounds were dissolved at 10 mM in dimethylsulfoxide (DMSO) and evaluated at eleven concentrations.

[2] = molecular target: HIS-AXL 473-End (Homo sapiens (Human), UniProt P30530); assay: AXL kinase homogeneous time resolved fluorescence (HTRF) binding assay; details: 1 nM kinase, fluorescein-labeled kinase tracer at Kd, 60 minutes at room temperature
Experimental: as §1, §2

GST-MERTK 578-872, sequence (Q12866 578-872): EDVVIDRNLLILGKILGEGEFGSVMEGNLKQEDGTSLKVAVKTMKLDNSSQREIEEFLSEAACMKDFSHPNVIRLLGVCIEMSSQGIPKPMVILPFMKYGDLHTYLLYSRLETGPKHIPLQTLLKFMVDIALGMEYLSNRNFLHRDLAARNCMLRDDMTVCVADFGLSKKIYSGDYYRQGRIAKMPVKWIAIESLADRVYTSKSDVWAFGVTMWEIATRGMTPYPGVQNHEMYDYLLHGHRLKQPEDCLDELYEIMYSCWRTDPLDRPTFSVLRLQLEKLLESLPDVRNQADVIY
HIS-AXL 473-End, sequence (P30530 473-894): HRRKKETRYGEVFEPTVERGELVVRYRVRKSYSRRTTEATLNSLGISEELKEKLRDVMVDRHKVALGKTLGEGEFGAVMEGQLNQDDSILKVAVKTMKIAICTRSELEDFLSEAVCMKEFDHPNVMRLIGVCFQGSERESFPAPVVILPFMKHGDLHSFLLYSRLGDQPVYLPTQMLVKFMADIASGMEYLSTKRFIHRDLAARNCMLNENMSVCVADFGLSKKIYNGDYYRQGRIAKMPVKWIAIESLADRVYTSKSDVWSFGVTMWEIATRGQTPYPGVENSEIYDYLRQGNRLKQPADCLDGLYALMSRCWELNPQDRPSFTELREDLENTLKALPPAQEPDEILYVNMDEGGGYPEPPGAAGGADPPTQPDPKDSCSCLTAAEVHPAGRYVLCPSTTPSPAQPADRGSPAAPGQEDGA

| Compound | IC50 [1] [nM] | IC50 [2] [nM] |
| --- | --- | --- |
| CC(C)n1cc(C(=O)Nc2ccc(Oc3ccnc(Nc4ccc(S(=O)(=O)N(C)C)cn4)c3)c(F)c2)c(=O)n(-c2cccc(C(F)(F)F)c2)c1=O [Example 72] | 119 | 90 |
| CC(=O)c1cccc(-n2c(=O)c(C(=O)Nc3ccc(Oc4ccnc(Nc5ccc(S(=O)(=O)N(C)C)cn5)c4)c(F)c3)cn(C(C)C)c2=O)c1 [Example 73] | 24 | 59 |
| CC(C)n1cc(C(=O)Nc2ccc(Oc3ccnc(Nc4ccc(S(=O)(=O)N(C)C)cn4)c3)cc2)c(=O)n(-c2ccc(F)cc2)c1=O [Example 74, N-{4-[(2-{[5-(dimethylsulfamoyl)pyridin-2-yl]amino}pyridin-4-yl)oxy]phenyl}-3-(4-fluorophenyl)-2,4-dioxo-1-(propan-2-yl)-1,2,3,4-tetrahydropyrimidine-5-carboxamide] | 1440 | 2.9 |
| CC(C)n1cc(C(=O)Nc2ccc(Oc3ccnc(Nc4ccc(S(=O)(=O)N(C)C)cn4)c3)cc2)c(=O)n(-c2ccccc2)c1=O [Example 75, N-{4-[(2-{[5-(dimethylsulfamoyl)pyridin-2-yl]amino}pyridin-4-yl)oxy]phenyl}-2,4-dioxo-3-phenyl-1-(propan-2-yl)-1,2,3,4-tetrahydropyrimidine-5-carboxamide] | 42 | 3.5 |
| CC(C)n1cc(C(=O)Nc2ccc(Oc3ccnc(Nc4ccc(S(=O)(=O)N5CCCCC5)cn4)c3)c(F)c2)c(=O)n(-c2ccc(F)cc2)c1=O [Example 76, N-{3-Fluoro-4-[(2-{[5-(piperidine-1-sulfonyl)pyridin-2-yl]amino}pyridin-4-yl)oxy]phenyl}-3-(4-fluorophenyl)-2,4-dioxo-1-(propan-2-yl)-1,2,3,4-tetrahydropyrimidine-5-carboxamide] | 38 | 18 |
| CNS(=O)(=O)c1ccc(Nc2cc(Oc3ccc(NC(=O)c4cn(C(C)C)c(=O)n(-c5ccc(F)cc5)c4=O)cc3F)ccn2)nc1 [Example 77] | 8.3 | 5 |
| CC(C)NS(=O)(=O)c1ccc(Nc2cc(Oc3ccc(NC(=O)c4cn(C(C)C)c(=O)n(-c5ccc(F)cc5)c4=O)cc3F)ccn2)nc1 [Example 78] | 9.8 | 986 |
| CC(C)n1cc(C(=O)Nc2ccc(Oc3ccnc(Nc4ccc(S(=O)(=O)NC5CC5)cn4)c3)c(F)c2)c(=O)n(-c2ccc(F)cc2)c1=O [Example 79] | 13 | 70 |
| CC(C)n1cc(C(=O)Nc2ccc(Oc3ccnc(Nc4ccc(S(=O)(=O)NC(C)(C)C)cn4)c3)c(F)c2)c(=O)n(-c2ccc(F)cc2)c1=O [Example 80] | 19 | 12 |
| CC(C)n1cc(C(=O)Nc2ccc(Oc3ccnc(Nc4ccc(S(=O)(=O)N5CCC5)cn4)c3)c(F)c2)c(=O)n(-c2ccc(F)cc2)c1=O [Example 81] | 17 | 4.4 |
| CC(C)n1cc(C(=O)Nc2ccc(Oc3ccnc(Nc4ccc(S(=O)(=O)N5CC(O)C5)cn4)c3)c(F)c2)c(=O)n(-c2ccc(F)cc2)c1=O [Example 82] | 8.8 | 256 |
| CC(C)n1cc(C(=O)Nc2ccc(Oc3ccnc(Nc4ccc(S(=O)(=O)N5CCOCC5)cn4)c3)c(F)c2)c(=O)n(-c2ccc(F)cc2)c1=O [Example 84] | 31 | 2330 |
| CC(C)n1cc(C(=O)Nc2ccc(Oc3ccnc(Nc4ccc(S(=O)(=O)N5CCN(C)CC5)cn4)c3)c(F)c2)c(=O)n(-c2ccc(F)cc2)c1=O [Example 85] | 19 | 3.9 |
| Cc1cc(Nc2cc(Oc3ccc(NC(=O)c4cn(C(C)C)c(=O)n(-c5ccc(F)cc5)c4=O)cc3F)ccn2)ncc1S(=O)(=O)N(C)C [Example 86, N-{4-[(2-{[5-(dimethylsulfamoyl)-4-methylpyridin-2-yl]amino}pyridin-4-yl)oxy]-3-fluorophenyl}-3-(4-fluorophenyl)-2,4-dioxo-1-(propan-2-yl)-1,2,3,4-tetrahydropyrimidine-5-carboxamide] | 31 | 10 |
| CC(C)n1cc(C(=O)Nc2ccc(Oc3ccnc(Nc4ccc(NS(C)(=O)=O)cn4)c3)c(F)c2)c(=O)n(-c2ccc(F)cc2)c1=O [Example 87, N-[3-fluoro-4-({2-[(5-methanesulfonamidopyridin-2-yl)amino]pyridin-4-yl}oxy)phenyl]-3-(4-fluorophenyl)-2,4-dioxo-1-(propan-2-yl)-1,2,3,4-tetrahydropyrimidine-5-carboxamide] | 6.7 | 16 |
| CC(C)n1cc(C(=O)Nc2ccc(Oc3ccnc(Nc4ccc(N5CCC(N)C5=O)cn4)c3)c(F)c2)c(=O)n(-c2ccc(F)cc2)c1=O (stereo not shown) [Example 90] | 3.1 | 2.2 |
| CC(C)n1cc(C(=O)Nc2ccc(Oc3ccnc(Nc4ccc(N5CCN(C(C)(C)C)C5=O)cn4)c3)c(F)c2)c(=O)n(-c2ccc(F)cc2)c1=O [Example 91] | 72 | 38 |
| CC(C)n1cc(C(=O)Nc2ccc(Oc3ccnc(Nc4ccc(S(=O)(=O)N(C)C)c(N(C)C)n4)c3)c(F)c2)c(=O)n(-c2ccc(F)cc2)c1=O [Example 98, N-{4-[(2-{[6-(dimethylamino)-N,N-(dimethylsulfamoyl)pyridin-2-yl]amino}pyridin-4-yl)oxy]-3-fluorophenyl}-3-(4-fluorophenyl)-2,4-dioxo-1-(propan-2-yl)-1,2,3,4-tetrahydropyrimidine-5-carboxamide] | 22 | 36 |

Further molecules by falling IC50 [1], results first:

| IC50 [1] [nM] | IC50 [2] [nM] | Compound |
| --- | --- | --- |
| 6.6 | 4.4 | CC(C)n1cc(C(=O)Nc2ccc(Oc3ccnc(Nc4ccc(N5CCC(NC(=O)OC(C)(C)C)C5=O)cn4)c3)c(F)c2)c(=O)n(-c2ccc(F)cc2)c1=O (stereo not shown) [Example 89] |
| 6.4 | 7.4 | CC(C)n1cc(C(=O)Nc2ccc(Oc3ccnc(Nc4ccc(S(=O)(=O)N(C)C)c(N5CCN(S(C)(=O)=O)CC5)n4)c3)c(F)c2)c(=O)n(-c2ccc(F)cc2)c1=O [Example 99, N-{4-[(2-{[5-(dimethylsulfamoyl)-6-(4-methanesulfonylpiperazin-1-yl)pyridin-2-yl]amino}pyridin-4-yl)oxy]-3-fluorophenyl}-3-(4-fluorophenyl)-2,4-dioxo-1-(propan-2-yl)-1,2,3,4-tetrahydropyrimidine-5-carboxamide] |
| 5.6 | 3.3 | CC(C)n1cc(C(=O)Nc2ccc(Oc3ccnc(Nc4ccc(N5CCCC5=O)cn4)c3)c(F)c2)c(=O)n(-c2ccc(F)cc2)c1=O [Example 88, N-{3-fluoro-4-[(2-{[5-(2-oxopyrrolidin-1-yl)pyridin-2-yl]amino}pyridin-4-yl)oxy]phenyl}-3-(4-fluorophenyl)-2,4-dioxo-1-(propan-2-yl)-1,2,3,4-tetrahydropyrimidine-5-carboxamide] |
| 4.3 | 0.8 | CC(C)n1cc(C(=O)Nc2ccc(Oc3ccnc(Nc4ccc(C(=O)NCC(F)F)cn4)c3)c(F)c2)c(=O)n(-c2ccc(F)cc2)c1=O [Example 95] |
| 2.9 | 0.7 | CC(C)n1cc(C(=O)Nc2ccc(Oc3ccnc(Nc4ccc(C(=O)NS(=O)(=O)C(C)C)cn4)c3)c(F)c2)c(=O)n(-c2ccc(F)cc2)c1=O [Example 96] |
| 2.1 | 3.1 | COC(=O)N1CCN(c2nc(Nc3cc(Oc4ccc(NC(=O)c5cn(C(C)C)c(=O)n(-c6ccc(F)cc6)c5=O)cc4F)ccn3)ccc2S(=O)(=O)N(C)C)CC1 [Example 100] |
| 1.9 | 0.4 | CC(C)n1cc(C(=O)Nc2ccc(Oc3ccnc(Nc4ccc(C(=O)NCC(C)(C)O)cn4)c3)c(F)c2)c(=O)n(-c2ccc(F)cc2)c1=O [Example 92, N-(3-Fluoro-4-{[2-({5-[(2-hydroxy-2-methylpropyl)carbamoyl]pyridin-2-yl}amino)pyridin-4-yl]oxy}phenyl)-3-(4-fluorophenyl)-2,4-dioxo-1-(propan-2-yl)-1,2,3,4-tetrahydropyrimidine-5-carboxamide] |
| 1.6 | 0.4 | CC(C)n1cc(C(=O)Nc2ccc(Oc3ccnc(Nc4ccc(C(=O)NCCN5CCOCC5)cn4)c3)c(F)c2)c(=O)n(-c2ccc(F)cc2)c1=O [Example 93] |
| 1 | 0.3 | CC(C)n1cc(C(=O)Nc2ccc(Oc3ccnc(Nc4ccc(C(=O)N(C)C)c(N5CCN(S(C)(=O)=O)CC5)n4)c3)c(F)c2)c(=O)n(-c2ccc(F)cc2)c1=O [Example 97, N-{4-[(2-{[5-(Dimethylcarbamoyl)-6-(4-methanesulfonylpiperazin-1-yl)pyridin-2-yl]amino}pyridin-4-yl)oxy]-3-fluorophenyl}-3-(4-fluorophenyl)-2,4-dioxo-1-(propan-2-yl)-1,2,3,4-tetrahydropyrimidine-5-carboxamide] |
| 0.6 | 0.7 | CC(C)n1cc(C(=O)Nc2ccc(Oc3ccnc(Nc4ccnc(N5CCCC5)n4)c3)c(F)c2)c(=O)n(-c2ccc(F)cc2)c1=O [Example 103, N-{3-fluoro-4-[(2-{[2-(pyrrolidin-1-yl)pyrimidin-4-yl]amino}pyridin-4-yl)oxy]phenyl}-3-(4-fluorophenyl)-2,4-dioxo-1-(propan-2-yl)-1,2,3,4-tetrahydropyrimidine-5-carboxamide] |
| 0.5 | 0.9 | CC(C)n1cc(C(=O)Nc2ccc(Oc3ccnc(Nc4ccnc(N5CCN(S(C)(=O)=O)CC5)n4)c3)c(F)c2)c(=O)n(-c2ccc(F)cc2)c1=O [Example 102, N-{3-fluoro-4-[(2-{[2-(4-methanesulfonylpiperazin-1-yl)pyrimidin-4-yl]amino}pyridin-4-yl)oxy]phenyl}-3-(4-fluorophenyl)-2,4-dioxo-1-(propan-2-yl)-1,2,3,4-tetrahydropyrimidine-5-carboxamide] |
